Assay results reported in patent US8865911B2, “Compounds and their use as BACE inhibitors” (Astrazeneca AB, priority 2010, dated 2014).

molecular target: human β-Secretase (Homo sapiens (Human), UniProt P56817); test: TR-FRET assay; type: biochemical; conditions: sBACE-Fc, substrate (Europium)CEVNLDAEFK(Qsy7) 100 nM, pH4.5, 15 minutes at r.t.
Protocol: The β-secretase enzyme used in the TR-FRET is prepared as follows: The cDNA for the soluble part of the human β-Secretase (AA 1-AA 460) was cloned using the ASP2-Fc10-1-IRES-GFP-neoK mammalian expression vector. The gene was fused to the Fc domain of IgG1 (affinity tag) and stably cloned into HEK 293 cells.
The robotic systems Biomek FX and Velocity 11 were used for all liquid handling and the enzyme and substrate solutions were kept on ice until they were placed in the robotic system. Enzyme (9 μl) was added to the plate then 1 μl of compound in dimethylsulphoxide was added, mixed and pre-incubated for 10 minutes. Substrate (10 μl) was then added, mixed and the reaction proceeded for 15 minutes at r.t. The reaction was stopped with the addition of Stop solution (7 μl, NaAcetate, pH 9). […] The dimethylsulphoxide control, instead of test compound, defined the 100% activity level and 0% activity was defined by wells lacking enzyme (replaced with reaction buffer).

Chain of human β-Secretase (P56817 22-460): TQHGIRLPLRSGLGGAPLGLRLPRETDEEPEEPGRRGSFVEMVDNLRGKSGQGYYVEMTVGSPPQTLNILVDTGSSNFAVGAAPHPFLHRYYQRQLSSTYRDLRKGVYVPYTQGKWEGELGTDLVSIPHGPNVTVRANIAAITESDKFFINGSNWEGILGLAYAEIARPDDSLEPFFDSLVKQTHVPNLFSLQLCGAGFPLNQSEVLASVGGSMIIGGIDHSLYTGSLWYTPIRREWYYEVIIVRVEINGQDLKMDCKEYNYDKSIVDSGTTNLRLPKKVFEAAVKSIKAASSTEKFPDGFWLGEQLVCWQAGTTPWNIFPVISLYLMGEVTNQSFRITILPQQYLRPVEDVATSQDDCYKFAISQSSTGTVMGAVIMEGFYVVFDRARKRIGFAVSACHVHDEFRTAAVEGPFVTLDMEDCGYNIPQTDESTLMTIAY

Structure (SMILES) | IC50 | IC50 in TR-FRET assay
CC1=N[C@]2(N=C1N)c1cc(-c3cc(F)cc(C#N)c3)ccc1C[C@]21CC[C@@H](OC(F)F)CC1 (racemic) [Example 105, 3-[(1r,4r)-4″-Amino-4-(difluoromethoxy)-5″-methyl-3′H-dispiro[cyclohexane-1,2′-indene-1′,2″-imidazol]-6′-yl]-5-fluorobenzonitrile] | 0.022 µM | –
CC1=NC2(CCOc3ccc(-c4cc(Cl)cc(Cl)c4)cc32)N=C1N (stereo not drawn) [Example 1, 6-(3,5-Dichlorophenyl)-5′-methylspiro[chroman-4,2′-imidazol]-4′-amine] | 0.157 µM | –
COc1ccc(OC)c(-c2ccc3c(c2)C2(CCO3)N=C(C)C(N)=N2)c1 (stereo not drawn) [Example 5, 6-(2,5-Dimethoxyphenyl)-5′-methylspiro[chroman-4,2′-imidazol]-4′-amine] | 3.64 µM | –
COc1ccc(C)cc1-c1ccc2c(c1)C1(CCO2)N=C(C)C(N)=N1 (stereo not drawn) [Example 10, 6-(2-Methoxy-5-methylphenyl)-5′-methylspiro[chroman-4,2′-imidazol]-4′-amine] | 6.85 µM | –
CC1=NC2(CCOc3ccc(-c4cc(C)ccc4F)cc32)N=C1N (stereo not drawn) [Example 11, 6-(2-Fluoro-5-methylphenyl)-5′-methylspiro[chroman-4,2′-imidazol]-4′-amine] | 1.98 µM | –
CC1=NC2(CCOc3ccc(NC(=O)c4ccc(Cl)cn4)cc32)N=C1N (stereo not drawn) [Example 13a, N-(4′-Amino-5′-methylspiro[chroman-4,2′-imidazole]-6-yl)-5-chloropicolinamide] | 1.3 µM | –
CC#CCOc1ccc(C(=O)Nc2ccc3c(c2)C2(CCO3)N=C(C)C(N)=N2)nc1 (stereo not drawn) [Example 13d, N-(4′-amino-5′-methylspiro[chroman-4,2′-imidazole]-6-yl)-5-(but-2-ynyloxy)picolinamide] | 0.112 µM | –
CC1=NC2(CCOc3ccc(NC(=O)c4ccc(C)s4)cc32)N=C1N (stereo not drawn) [Example 13f, N-(4′-Amino-5′-methylspiro[chroman-4,2′-imidazole]-6-yl)-5-methylthiophene-2-carboxamide] | 6.46 µM | –
CC1=NC2(CCOc3ccc(NC(=O)c4ncc(Cl)cc4Cl)cc32)N=C1N (stereo not drawn) [Example 13i, N-(4′-Amino-5′-methylspiro[chroman-4,2′-imidazole]-6-yl)-3,5-dichloropicolinamide] | 0.56 µM | –
CC1=NC2(N=C1N)c1cc(-c3cccc(Cl)c3)ccc1CC21CCOCC1 (stereo not drawn) [Example 26a, 6′-(3-Chlorophenyl)-5-methyl-2″,3″,5″,6″-tetrahydro-3′H-dispiro[imidazole-2,1′-indene-2′,4″-pyran]-4-amine] | 0.1 µM | –
CC1=NC2(N=C1N)c1cc(-c3ccc(F)c(Cl)c3)ccc1CC21CCOCC1 (stereo not drawn) [Example 26c, 6′-(3-Chloro-4-fluorophenyl)-5-methyl-2″,3″,5″,6″-tetrahydro-3′H-dispiro[imidazole-2,1′-indene-2′,4″-pyran]-4-amine] | 0.145 µM | –
CC1=NC2(N=C1N)c1cc(NC(=O)c3ccc(Cl)cn3)ccc1CC21CCC(F)(F)CC1 (stereo not drawn) [Example 28d, N-(4″-Amino-4,4-difluoro-5″-methyl-3′H-dispiro[cyclohexane-1,2′-indene-1′,2″-imidazol]-6′-yl)-5-chloropyridine-2-carboxamide] | 0.408 µM | –
CC1=NC2(N=C1N)c1cc(C#CC(C)(C)C)ccc1CC21CCC1 (stereo not drawn) [Example 59, 6′-(3,3-Dimethylbut-1-yn-1-yl)-5″-methyl-3′H-dispiro[cyclobutane-1,2′-indene-1′,2″-imidazol]-4″-amine] | 2.61 µM | –
CC#Cc1cncc(-c2ccc3c(c2)C2(N=C(C)C(N)=N2)[C@]2(CC[C@H](OC)CC2)C3)c1C (stereo partly drawn) [Example 63, (1r,4r)-4-Methoxy-5″-methyl-6′-[4-methyl-5-(prop-1-yn-1-yl)pyridin-3-yl]-3′H-dispiro[cyclohexane-1,2′-indene-1′,2″-imidazol]-4″-amine] | 0.089 µM | –
CCC1=NC2(N=C1N)c1cc(Br)ccc1C[C@]21CC[C@@H](OC)CC1 (stereo partly drawn) [Example 64, (1r,4r)-6′-Bromo-5″-ethyl-4-methoxy-3′H-dispiro[cyclohexane-1,2′-indene-1′,2″-imidazol]-4″-amine] | 0.401 µM | –
COCc1cc(F)cc(-c2ccc3c(c2)C2(N=C(C)C(N)=N2)[C@]2(CC[C@H](OC)CC2)C3)c1 (stereo partly drawn) [Example 81, (1r,4r)-6′-[3-Fluoro-5-(methoxymethyl)phenyl]-4-methoxy-5″-methyl-3′H-dispiro[cyclohexane-1,2′-indene-1′,2″-imidazol]-4″-amine] | 0.023 µM | –
CO[C@H]1CC[C@]2(CC1)Cc1ccc(-c3cccc(F)c3F)cc1[C@@]21N=C(C)C(N)=N1 [Example 101] | 0.0198 µM | –
CC1=NC2(N=C1N)c1cc(-c3cc(F)cc(F)c3)ccc1C[C@]21CC[C@@H](OC(F)F)CC1 (stereo partly drawn) [Example 109, (1r,4r)-4-(Difluoromethoxy)-6′-(3,5-difluorophenyl)-5″-methyl-3′H-dispiro[cyclohexane-1,2′-indene-1′,2″-imidazol]-4″-amine] | 0.021 µM | –
CC#Cc1cncc(-c2ccc3c(c2)C2(N=C(C)C(N)=N2)[C@]2(CC[C@](C)(OC)CC2)C3)c1 (stereo partly drawn) [Example 111, (1r,4r)-4-Methoxy-4,5″-dimethyl-6′-[5-(prop-1-yn-1-yl)pyridin-3-yl]-3′H-dispiro[cyclohexane-1,2′-indene-1′,2″-imidazol]-4″-amine] | 0.051 µM | –
CC1=NC2(N=C1N)c1cc(-c3cc(F)cc(C#N)c3)ccc1CC21CCC(=O)CC1 (stereo not drawn) [Example 115, 3-(4″-Amino-5″-methyl-4-oxodispiro[cyclohexane-1,2′-[1H]indene-1′(3′H),2″-[2H]imidazol]-6′-yl)-5-fluorobenzonitrile] | 0.632 µM | –
CC1=NC2(N=C1N)c1cc(Br)ccc1CC21CCC(C(F)F)CC1 (stereo not drawn) [Example 128, 6′-Bromo-4-(difluoromethyl)-5″-methyl-3′H-dispiro[cyclohexane-1,2′-indene-1′,2″-imidazol]-4″-amine] | 2.61 µM | –

Other lines, results leading:

IC50 | IC50 in TR-FRET assay | Structure (SMILES)
0.01 µM | – | CC1=NC2(CC(C3CCOC(C)(C)C3)Oc3ccc(Br)cc32)N=C1N (mixture of isomers) [Example 49 Isomeric mixture 1, 6-Bromo-2-(2,2-dimethyltetrahydro-2H-pyran-4-yl)-5′-methyl-spiro[chromane-4,2′-imidazole]-4′-amine]
– | inactive | CC1=NC2(CC(C3CCOC(C)(C)C3)Oc3ccc(Br)cc32)N=C1N (mixture of isomers) [Example 49 Isomeric mixture 2, 6-Bromo-2-(2,2-dimethyltetrahydro-2H-pyran-4-yl)-5′-methyl-spiro[chromane-4,2′-imidazole]-4′-amine]
0.1 µM | – | CC1=NC2(CC(C3CCOC(C)(C)C3)Oc3ccc(-c4cccc(Cl)c4)cc32)N=C1N (racemic) [Example 50 Isomeric mixture 1, 6-(3-Chlorophenyl)-2-(2,2-dimethyltetrahydro-2H-pyran-4-yl)-5′-methylspiro[chroman-4,2′-imidazol]-4′-amine]
– | inactive | CC1=NC2(CC(C3CCCOC3)Oc3ccc(Br)cc32)N=C1N (single isomer, unassigned) [Example 47 Isomer 1, 6-Bromo-5′-methyl-2-(tetrahydro-2H-pyran-3-yl)spiro[chromane-4,2′-imidazole]-4′-amine]
1.03 µM | – | CC1=NC2(CC(C3CCCOC3)Oc3ccc(Br)cc32)N=C1N (single isomer, unassigned) [Example 47 Isomer 2, 6-Bromo-5′-methyl-2-(tetrahydro-2H-pyran-3-yl)spiro[chromane-4,2′-imidazole]-4′-amine]
– | inactive | CC1=NC2(CC(C3CCCOC3)Oc3ccc(Br)cc32)N=C1N (single isomer, unassigned) [Example 47 Isomer 3, 6-Bromo-5′-methyl-2-(tetrahydro-2H-pyran-3-yl)spiro[chromane-4,2′-imidazole]-4′-amine]
65.3 µM | – | CC1=NC2(CC(C3CCCOC3)Oc3ccc(Br)cc32)N=C1N (single isomer, unassigned) [Example 47 Isomer 4, 6-Bromo-5′-methyl-2-(tetrahydro-2H-pyran-3-yl)spiro[chromane-4,2′-imidazole]-4′-amine]
19.8 µM | – | CC1=NC2(CC(C3CCCOC3)Oc3ccc(Br)cc32)N=C1N (single isomer, unassigned) [Example 47 Isomer 5, 6-Bromo-5′-methyl-2-(tetrahydro-2H-pyran-3-yl)spiro[chromane-4,2′-imidazole]-4′-amine]
1.38 µM | – | CC1=NC2(CC(C3CCCOC3)Oc3ccc(Br)cc32)N=C1N (single isomer, unassigned) [Example 47 Isomer 6, 6-Bromo-5′-methyl-2-(tetrahydro-2H-pyran-3-yl)spiro[chromane-4,2′-imidazole]-4′-amine]
– | inactive | CC1=NC2(CC(C3CCCOC3)Oc3ccc(Br)cc32)N=C1N (single isomer, unassigned) [Example 47 Isomer 7, 6-Bromo-5′-methyl-2-(tetrahydro-2H-pyran-3-yl)spiro[chromane-4,2′-imidazole]-4′-amine]
8.1 µM | – | CC1=NC2(CC(C3CCCOC3)Oc3ccc(Br)cc32)N=C1N (single isomer, unassigned) [Example 47 Isomer 8, 6-Bromo-5′-methyl-2-(tetrahydro-2H-pyran-3-yl)spiro[chromane-4,2′-imidazole]-4′-amine]
6.61 µM | – | CC1=NC2(N=C1N)c1cc(Br)ccc1CC21CCC1 (stereo not drawn) [Example 54, 6′-Bromo-5″-methyl-3′H-dispiro[cyclobutane-1,2′-indene-1′,2″-imidazol]-4″-amine]
